Results taken from patent US8034791B2, “Activation of Egr-1 promoter by DNA damaging chemotherapeutics” (The University of Chicago, priority 2001, dated 2011).
Where a name gives a salt, the structure may show the parent alone.

Columns and labels:
PC-3 cells [1] = assay: Preliminary in vitro TNF-α induction, PC-3 cells; format: cell-based, human; settings: vector treated PC-3 cells (100 MOI), 24 hrs; cisplatin 250 μM, doxorubicin 3 μM, 5-FU 20 mM, paclitaxel 14 μM
Description: (§1) In vitro measurement of TNF-α protein. PC-3 and PROb cells were plated in 96-well plates, grown overnight, and infected with Ad.Egr.TNF at 100 multiplicities of infection, incubated for three hrs, and were then treated with cisplatin (250 μM), doxorubicin (3 μM), 5-FU (20 mM) or paclitaxel (14 μM). Supernatants were harvested 24 hrs later and human TNF-α production was quantified by ELISA. Experiments were performed in quintuplicate.

PROb cells [2] = assay: Preliminary in vitro TNF-α induction, PROb cells; format: cell-based, rat; settings: PROb cells treated with Ad.TNF (100 MOI), 24 hrs; cisplatin 250 μM, doxorubicin 3 μM, 5-FU 20 mM, paclitaxel 14 μM
Description: as §1

PC-3 xenografts [3] = format: in vivo, nude mice; settings: IT vector 5×10^9 p.u. + IP agent vs vector and NS, cisplatin 9, cyclophosphamide 160, doxorubicin 15, 5-FU 100 mg/kg
Description: (§2) In vivo measurement of TNF-α protein. PC-3 (1×10^7 cells) or PROb cells (5×10^6) in 100 μl PBS were injected subcutaneously into the right hind limb of nude mice. Tumor-bearing mice received IT Ad.Egr.TNF (5×10^9 p.u. in 10 μl) with 250 μl of complete media with NS or a chemotherapeutic agent, including cisplatin (9 mg/kg), cyclophosphamide (160 mg/kg), doxorubicin (15 mg/kg), 5-fluorouracil (100 mg/kg) and gemcitabine (500 mg/kg). Each mouse IP injections were administered 20 hrs after transfection, and two consecutive IT and IP injections were given. Animals were euthanized, and xenografts were harvested 48 hrs after the second IP injection. Xenografts were snap-frozen in liquid nitrogen and homogenized in RIPA buffer (150 mM NaCl, 10 mM Tris at pH 7.5, 5 mM EDTA at pH 7.5, 100 mM PMSF, 1 μg/ml leupeptin and 2 μg/ml aprotinin). After three freeze-thaw lysis cycles, the homogenate was centrifuged for 10 minutes at 4° C. TNF-α levels in the supernatants were measured as described above.

PROb xenografts [4] = format: in vivo, nude mice; settings: IT vector 5×10^9 p.u. + IP agent vs vector plus NS, cisplatin 9, cyclophosphamide 160, doxorubicin 15, 5-FU 100, gemcitabine 500 mg/kg
Description: as §2

PC-3 cells [5] = assay: Chemo-sensitivity by MTS assay, PC-3 cells; format: cell-based, human; settings: PC-3, Ad.Egr-TNF.11D and chemotherapy 24 hrs
Description: (§3) Chemo-sensitivity of PC-3 and PROb cells as determined by MTS assay. PC-3 and PROb cells were plated at a density of 10^5 cells/100 μl medium in 96-well tissue culture plates and incubated overnight. […] After incubation, 200 μl of complete media, with or without chemotherapeutic agents, was added. Chemotherapeutic agents used were at final concentrations of cisplatin at 46 and 460 μM, doxorubicin at 3 and 300 μM, 5-fluorouracil at 2 and 200 mM and paclitaxel at 1.4 and 140 μM. Media was removed 24 hrs later and each well was rinsed with 200 μl of complete media (CM) and aspirated. 100 μl of CM was then added with 20 μl of CellTiter 96® Aqueous One Solution Cell Proliferation Assay solution (Promega, Madison, Wis.), and the cells were allowed to incubate for 1 hr. Absorbance was measured at 490-650 nm.

PROb cells [6] = assay: Chemo-sensitivity by MTS assay, PROb cells; format: cell-based, rat; settings: Ad.Egr-TNF.11D and chemotherapy 24 hrs
Description: as §3

PC-3 cells [7] = assay: Chemo-inducibility of Ad.Egr-TNF.11D in vitro, PC-3 cells; settings: PC-3 cells, doses used in the chemo-induction experiments (3 μM)
Description: (§4) PC-3 and PROb cells were plated, infected with Ad.Egr.TNF, and incubated as discussed above. After incubation, 200 μl of CM, with or without chemotherapeutic agents, including cisplatin (250 μM), doxorubicin (3 μM), 5-fluorouracil (100 mM), gemcitabine (3 mM) and paclitaxel (14 μM) were added. Conditioned medium was harvested 24 hrs. later, and TNF-α concentration was measured (Quantikine Human TNF-α ELISA kit, R & D Systems, Minneapolis, Minn.).

PROb cells [8] = assay: Chemo-inducibility of Ad.Egr-TNF.11D in vitro, PROb cells; format: cell-based, rat; settings: vector-infected PROb cells, 24 hrs; cisplatin 250 μM, doxorubicin 3 μM, 5-FU 100 mM, gemcitabine 3 mM, paclitaxel 14 μM
Description: as §4

PC-3 xenografts [9] = format: in vivo, athymic nude mice; settings: vector + IP agent days 1 and 2, cisplatin 9, cyclophosphamide 160, doxorubicin 15, 5-FU 100, gemcitabine 500 mg/kg
Description: (§5) Saline or chemotherapeutic agents administered IP on days 1 and 2, including 9 mg/kg cisplatin, 160 mg/kg cyclophosphamide, 15 mg/kg doxorubicin, 100 mg/kg 5-FU and 500 mg/kg gemcitabine. Animals were euthanized, and xenografts were harvested 24 hrs after the second IP injection. Xenografts were snap-frozen in liquid nitrogen and homogenized in RIPA buffer (150 mM NaCl, 10 mM Tris pH 7.5, 5 mM EDTA pH 7.5, 100 mM PMSF, 1 µg/ml leupeptin and 2 μg/ml aprotinin) using a Brinkman Polytron homogenizer (Kinematica AG, Lucerne, Switzerland). After three freeze-thaw lysis cycles, the homogenate was centrifuged at 7800×g in a Sorvall RC-5C SS34 rotor (Kendro Laboratory Products, Newtown, Conn.) for 10 min at 4° C. TNF-α levels in the supernatants were measured by ELISA as described above.

PROb xenografts [10] = settings: PROb xenografts, vector + IP agent vs vector alone; cisplatin 9, cyclophosphamide 160, doxorubicin 15, 5-FU 100, gemcitabine 500 mg/kg
Description: as §5

PC-3 xenografts [11] = assay: Xenograft regrowth study, PC-3; format: in vivo, athymic nude mice
Description: Xenograft regrowth studies. Treatment was initiated on day 0 at which time mice were assigned to one of 4 treatment groups: control, doxorubicin, Ad.Egr-TNF.11D, and combination of Ad.Egr-TNF.11D and doxorubicin. On days 0 and 3, mice received IT injection of 10 μl of either 5×10^9 p.u. Ad.Egr-TNF.11D, or 10 μl of viral formulation buffer. IP injections of doxorubicin or NS (2 mg/kg) were administered daily from days 0 through 8. Xenografts were measured twice weekly and tumor volume was calculated according to the formula (length×width×thickness)/2. Fractional tumor volumes (V/V0 where V0=volume on day 0) were calculated and plotted.

PROb xenografts [12] = assay: Xenograft regrowth study, PROb; format: in vivo, athymic nude mice; settings: day 27, among control, doxorubicin alone and vector alone
Description: Xenograft regrowth studies. […] On days 0 and 3, mice received IT injection of 10 μl of either 5×10^9 p.u. […] IP injections of doxorubicin or NS (2 mg/kg) were administered daily from days 0 through 8. Xenografts were measured twice weekly and tumor volume was calculated according to the formula (length×width×thickness)/2. Fractional tumor volumes (V/V0 where V0=volume on day 0) were calculated and plotted.

PC-3 xenografts [13] = assay: Analysis of microvessel density (anti-CD31), PC-3 xenografts; format: in vivo, athymic nude mice; settings: day 27, anti-CD31
Description: Two or three xenografts from each treatment group in the PC-3 regrowth study above were collected and fixed in 10% neutral buffered formalin, embedded in paraffin, cut in 5 μm slices, mounted, baked, cleared in xylene, and rehydrated in decreasing alcohol concentrations (100%-70%) and distilled water. Sections were microwaved in 10 mM citrate buffer at pH 6.0 for 18 min, washed and soaked in 1% hydrogen peroxide/methanol for 20 min prior to blocking with avidin-biotin (Vector Laboratories, Burlingame, Calif.) for 15 min. Slides were incubated with biotin (15 min), washed and blocked with serum-free DAKO protein (DAKO, Carpinteria, Calif.) for 10 min prior to incubation with a 1:50 dilution of goat anti-mouse CD31 antibody (Santa Cruz, Santa Cruz, Calif.) for 60 min at RT. CD-31 staining was visualized on tissue sections following incubation with DAKO biotinylated anti-goat secondary antibody for 30 min and DAB reagent (Vector) for 60 sec. Sections were counterstained with Gill 3 hematoxylin and dehydrated in ethanol (95%-100%) and xylene prior to mounting. All slides were read by an investigator blinded to the treatment groups. Positively stained vessels were counted in 5-10 high power fields (×400) per slide using light microscopy. Blood vessels were identified by endothelial cell staining and by endothelial cells surrounding intraluminal erythrocytes. […]

[14] = higher concentration: cisplatin 460 μM, doxorubicin 300 μM, 5-FU 200 mM, taxol 140 μM
[15] = lower concentration: cisplatin 46 μM, doxorubicin 3 μM, 5-FU 2 mM, taxol 1.4 μM

## COc1cccc2c1C(=O)c1c(O)c3c(c(O)c1C2=O)C[C@@](O)(C(=O)CO)C[C@@H]3O[C@H]1C[C@H](N)[C@H](O)[C@H](C)O1 [doxorubicin, doxorubicin hydrochloride]
PC-3 cells [1]
  increased TNF levels: 14.5 fold
PROb cells [2]
  increased TNF levels: 7.3 fold
PC-3 xenografts [3]
  induced TNF-α: 3.1 fold
PROb xenografts [4]
  increased TNF-α levels: 2.5 fold
PC-3 cells [5]; [14]
  surviving fraction: 30%
PC-3 cells [5]; [15]
  surviving fraction: 90%
PROb cells [6]; [14]
  surviving fraction: 85%
PROb cells [6]; [15]
  surviving fraction: 100%
PC-3 cells [7]
  toxicity to cells: toxic at the doses used
PROb cells [8]
  increase in TNF-α levels: 7.4 fold
PC-3 xenografts [9]
  increase in TNF-α levels: 4.2 fold
PROb xenografts [10]
  induction of TNF-α protein: 2.3 fold
PC-3 xenografts [11]; PC-3 xenografts, day 23, doxorubicin 2 mg/kg IP daily
  tumor growth: 3 fold
PC-3 xenografts [11]; xenograft regrowth studies in nude mice
  systemic toxicity, including weight loss and deaths: Systemic toxicity, including weight loss and deaths, was observed
PROb xenografts [12]
  tumor growth delay: no difference in tumor growth delay
PC-3 xenografts [13]
  number of vessels per high power field: 6.24±0.35
